Drawing on patent US20260053861A1, “CELL COMPOSITIONS AND METHODS OF USING THE SAME” (THE REGENTS OF THE UNIVERSITY OF CALIFORNIA, priority 2022, published 2026), this text covers z.score.t for 69 compounds.

Counter-ions that a name gives are not always drawn.

The test system of the first assay is hPSC-SCs.
Conditions: not given
As to `C#C[C@]1(O)CC[C@H]2[C@@H]3CCC4=CC(=O)CC[C@]4(C)[C@H]3CC[C@@]21C` [Ethisterone], the z.score.t stood at 0.2916. Compound `CCOC(=O)c1cncn1[C@H](C)c1ccccc1` [Etomidate] registered a z.score.t of −0.1902.

For the compound `CC(C)c1c(CN(C)C(C)Cc2ccccc2)n(C)n(-c2ccccc2)c1=O` (stereo not drawn) [Famprofazone], the z.score.t was −1.288. The same measure, in the same setting: as for `CC(Cc1ccc(O)cc1)NCC(O)c1cc(O)cc(O)c1` (stereo not drawn) [Fenoterol hydrobromide], the figure is 0.8992; as for `C/C=C1/C[N@+]2(C)CC[C@]34C(=C(C=O)[C@H]1C[C@@H]32)Nc1ccccc14.[Cl-]` [Fluorocurarine chloride], 1.364.

`CCCCc1ccc(C(=O)O)nc1` [Fusaric acid] showed a z.score.t of 1.345.

As to `NCC1(CC(=O)O)CCCCC1` [Gabapentin], the z.score.t is −0.496. `COc1ccc2c3c1O[C@H]1C[C@@H](O)C=C[C@@]31CCN(C)C2` [Galanthamine hydrobromide] registered a z.score.t of 0.8023. The compound `C=C[C@]12CN(C)[C@@H]3[C@H]4CO[C@H](C[C@H]41)[C@]1(C(=O)Nc4ccccc41)[C@@H]32` [Gelsemine] registered a z.score.t of 1.601.

Still in this assay, the particulars now being: HTS viability of hPSC-SCs in the presence of 30 mM glucose; Prestwick library; Table S4.
As for `CCN(CC)C(C)CN1c2ccccc2Sc2ccccc21` (stereo not drawn) [Ethopropazine hydrochloride], the z.score.t was 0.2139. Same read-out and setting: as for `CCC1(C)CC(=O)NC1=O` (stereo not drawn) [Ethosuximide], the figure is 0.4064; as for `CCN1C(=O)NC(c2ccccc2)C1=O` (stereo not drawn) [Ethotoin], −0.6988; as for `CCOc1ccc2c(c1)C(C)=CC(C)(C)N2` [Ethoxyquin], −1.23. Same read-out and setting: the same measure for `C#C[C@]1(OC(C)=O)CC[C@H]2[C@@H]3CCC4=C[C@@H](OC(C)=O)CC[C@@H]4[C@H]3CC[C@@]21C` [Ethynodiol diacetate]: −0.3895. `C#C[C@]1(O)CC[C@H]2[C@@H]3CCc4cc(OC)ccc4[C@H]3CC[C@@]21C` [Ethynylestradiol 3-methyl ether]: the z.score.t came out at 0.9696. On the same count and under the same terms, as for `CC(O)(P(=O)(O)O)P(=O)(O)O` [Etidronic acid, disodium salt], the figure is −0.8317.

Regarding `CCc1cccc(CC)c1NC(=O)CN(CC(=O)O)CC(=O)O` [Etifenin], the z.score.t is given as 1.002. The same measure, in the same setting: the same measure for `CCNCC(O)c1cccc(O)c1` (stereo not drawn) [Etilefrine hydrochloride]: −0.4549; for `CCc1cccc2c3c([nH]c12)C(CC)(CC(=O)O)OCC3` (stereo not drawn) [Etodolac]: −0.139.

On to `Cn1c(=O)c2c(ncn2CCO)n(C)c1=O` [Etofylline], for which the z.score.t was determined as 0.9225.

Take `COc1cc([C@@H]2c3cc4c(cc3[C@@H](O[C@@H]3O[C@@H]5CO[C@@H](C)O[C@H]5[C@H](O)[C@H]3O)[C@H]3COC(=O)[C@H]23)OCO4)cc(OC)c1O` [Etoposide]: the z.score.t is given as −1.576. The same measure, in the same setting: the same measure for `CC1CC(OC(=O)C(O)c2ccccc2)CC(C)(C)N1C` (stereo not drawn) [Eucatropine hydrochloride]: 0.0568. The same measure, in the same setting: the same measure for `COc1c2ccoc2nc2c(OC)c(OCC(O)C(C)(C)O)ccc12` (stereo not drawn) [Evoxine]: 0.0116.

Turning to `NC(N)=Nc1nc(CSCCC(N)=NS(N)(=O)=O)cs1` [Famotidine], the z.score.t is reported as 1.191. On the same count and under the same terms, as for `O=C(O)Cc1ccc(-c2ccccc2)cc1` [Felbinac], the figure is −0.0788; as for `CCOC(=O)C1=C(C)NC(C)=C(C(=O)OC)C1c1cccc(Cl)c1Cl` (stereo not drawn) [Felodipine], 0.006455. Still for that read-out and setting: as for `COC(=O)Nc1nc2ccc(Sc3ccccc3)cc2[nH]1` [Fenbendazole], the figure is −1.607; as for `O=C(O)CCC(=O)c1ccc(-c2ccccc2)cc1` [Fenbufen], 1.249. Same read-out and setting: the same measure for `CC(NCCC(c1ccccc1)c1ccccc1)c1ccccc1` (stereo not drawn) [Fendiline hydrochloride]: −1.478; for `CC(C)OC(=O)C(C)(C)Oc1ccc(C(=O)c2ccc(Cl)cc2)cc1` [Fenofibrate]: 0.1742. As to `CC(C(=O)O)c1cccc(Oc2ccccc2)c1` (stereo not drawn) [Fenoprofen calcium salt dihydrate], the z.score.t was 0.1244. With `O=C1NCC2(CCN(CCc3ccccc3)CC2)O1` [Fenspiride hydrochloride], the z.score.t is −0.01953. The same measure, in the same setting: the same measure for `CC(C)(C(=O)O)c1ccc(C(O)CCCN2CCC(C(O)(c3ccccc3)c3ccccc3)CC2)cc1` (stereo not drawn) [Fexofenadine HCl]: −0.5086. For `COc1cc(C(=O)OC2CC3CCC(C2)N3C)ccc1O` (stereo not drawn) [Fillalbin], the z.score.t is recorded as 0.5365. Take `CC(C)(C)NC(=O)[C@H]1CC[C@H]2[C@@H]3CC[C@H]4NC(=O)C=C[C@]4(C)[C@H]3CC[C@]12C` [Finasteride]: the z.score.t is −0.9741.

On to `O=C(COc1ccc(Cl)cc1)N1CCN(Cc2ccc3c(c2)OCO3)CC1` [Fipexide hydrochloride], for which the z.score.t is 0.5179. Take `Cc1c(-c2ccccc2)oc2c(C(=O)OCCN3CCCCC3)cccc2c1=O` [Flavoxate hydrochloride]: the z.score.t is 1.21. The same measure, in the same setting: as for `O=C(NCC1CCCCN1)c1cc(OCC(F)(F)F)ccc1OCC(F)(F)F` (stereo not drawn) [Flecainide acetate], the figure is 0.4105.

For the compound `CS(=O)(=O)c1ccc([C@@H](O)[C@@H](CF)NC(=O)C(Cl)Cl)cc1` [Florfenicol], the z.score.t is 0.5365. Same read-out and setting: as for `Cc1onc(-c2c(F)cccc2Cl)c1C(=O)N[C@@H]1C(=O)N2[C@@H]1SC(C)(C)[C@@H]2C(=O)O` [Flucloxacillin sodium], the figure is −1.056; as for `Nc1[nH]c(=O)ncc1F` [Flucytosine], −0.05622. In the case of `CC(=O)OCC(=O)[C@@]1(O)CC[C@H]2[C@@H]3CCC4=CC(=O)CC[C@]4(C)[C@@]3(F)[C@@H](O)C[C@@]21C` [Fludrocortisone acetate], the z.score.t is on record as 1.278.

For `O=C(O)c1ccccc1Nc1cccc(C(F)(F)F)c1` [Flufenamic acid], the z.score.t is reported as −1.003. Regarding `Fc1ccc(C(c2ccc(F)cc2)N2CCN(C/C=C/c3ccccc3)CC2)cc1` [Flunarizine dihydrochloride], the z.score.t is −1.898. Same read-out and setting: the same measure for `CC1(C)O[C@@H]2C[C@H]3[C@@H]4C[C@H](F)C5=CC(=O)C=C[C@]5(C)[C@H]4[C@@H](O)C[C@]3(C)[C@]2(C(=O)CO)O1` [Flunisolide]: 1.612; for `Cc1c(Nc2ncccc2C(=O)O)cccc1C(F)(F)F` [Flunixin meglumine]: 1.117; for `CC(=O)OCC(=O)[C@@]12OC(C)(C)O[C@@H]1C[C@H]1[C@@H]3C[C@H](F)C4=CC(=O)C=C[C@]4(C)[C@@]3(F)[C@@H](O)C[C@@]12C` [Fluocinonide]: 0.2803. As to `CC(=O)[C@@]1(O)CC[C@H]2[C@@H]3C[C@H](C)C4=CC(=O)C=C[C@]4(C)[C@@]3(F)[C@@H](O)C[C@@]21C` [Fluorometholone], the z.score.t is −0.9741. Regarding `CNCCC(Oc1ccc(C(F)(F)F)cc1)c1ccccc1` (stereo not drawn) [Fluoxetine hydrochloride], the z.score.t is −0.865. Same read-out and setting: the same measure for `OCCN1CCN(CCCN2c3ccccc3Sc3ccc(C(F)(F)F)cc32)CC1` [Fluphenazine dihydrochloride]: −1.847; for `CC1(C)O[C@@H]2C[C@H]3[C@@H]4C[C@H](F)C5=CC(=O)CC[C@]5(C)[C@H]4[C@@H](O)C[C@]3(C)[C@]2(C(=O)CO)O1` [Flurandrenolide]: 0.4741. In the case of `CC(C(=O)O)c1ccc(-c2ccccc2)c(F)c1` (stereo not drawn) [Flurbiprofen], the z.score.t worked out at 1.824. Still for that read-out and setting: the same measure for `O=C1NCN(c2ccccc2)C12CCN(CCCC(c1ccc(F)cc1)c1ccc(F)cc1)CC2` [Fluspirilen]: −1.399. Regarding `CC(C)C(=O)Nc1ccc([N+](=O)[O-])c(C(F)(F)F)c1` [Flutamide], the z.score.t was 0.5856. Still for that read-out and setting: the same measure for `CCC(=O)O[C@]1(C(=O)SCF)[C@H](C)C[C@H]2[C@@H]3C[C@H](F)C4=CC(=O)C=C[C@]4(C)[C@@]3(F)[C@@H](O)C[C@@]21C` [Fluticasone propionate]: 0.1543. In the case of `CC(C)n1c(/C=C/C(O)CC(O)CC(=O)O)c(-c2ccc(F)cc2)c2ccccc21` (stereo not drawn) [Fluvastatin sodium salt], the z.score.t is recorded as −0.4538.

As for `COCCCC/C(=N\OCCN)c1ccc(C(F)(F)F)cc1` [Fluvoxamine maleate], the z.score.t is listed as 0.03957. In the case of `Nc1nc2ncc(CNc3ccc(C(=O)N[C@@H](CCC(=O)O)C(=O)O)cc3)nc2c(=O)[nH]1` [Folic acid], the z.score.t amounted to 0.7312.

Consider `Nc1nc(=O)c2c([nH]1)NCC(CNc1ccc(C(=O)N[C@@H](CCC(=O)[O-])C(=O)[O-])cc1)N2C=O.[Ca+2]` (stereo partly drawn) [Folinic acid calcium salt], for which the z.score.t is recorded as 0.1244. In the case of `O=C(O)c1ccccc1OP(=O)(O)O` [Fosfosal], the z.score.t came to 0.495.

For `O=C1OC(CN2CCOCC2)CN1/N=C/c1ccc([N+](=O)[O-])o1` (stereo not drawn) [Furaltadone hydrochloride], the z.score.t stood at 2.34.

Regarding `NS(=O)(=O)c1cc(C(=O)O)c(NCc2ccco2)cc1Cl` [Furosemide], the z.score.t was −1.306. With `CC(=O)O[C@H]1C[C@@]2(C)[C@@H](C[C@@H](O)[C@H]3[C@@]4(C)CC[C@@H](O)[C@@H](C)[C@@H]4CC[C@@]32C)/C1=C(\CCC=C(C)C)C(=O)O` [Fusidic acid sodium salt], the z.score.t was found to be 0.6203. On the same count and under the same terms, the same measure for `Fc1ccc(C(OCCN2CCN(CCCc3ccccc3)CC2)c2ccc(F)cc2)cc1` [GBR 12909 dihydrochloride]: −1.092. Still for that read-out and setting: the same measure for `COc1ccc(-c2ccc(=N)n(CCCC(=O)O)n2)cc1` [Gabazine]: 1.252; for `CCOC(=O)c1ccc(OC(=O)CCCCCN=C(N)N)cc1.CS(=O)(=O)O` [Gabexate mesilate]: 0.5136. Still for that read-out and setting: as for `CC[N+](CC)(CC)CCOc1cccc(OCC[N+](CC)(CC)CC)c1OCC[N+](CC)(CC)CC` [Gallamine triethiodide], the figure is −0.1538. Turning to `Nc1nc(O)c2ncn(COC(CO)CO)c2n1` [Ganciclovir], the z.score.t is recorded as −0.5992. `Cc1ccc(C)c(OCCCC(C)(C)C(=O)O)c1` [Gemfibrozil]: the z.score.t stood at 0.4486.
